This experiment deals with HCV replicon (HCV 1b-377-neo replicon cells). Nature of the experiment: HCV replicon cell line FRET assay. To be noted: Hepatitis C virus; HCV replicon cell line, FRET assay; read-out: Replicon Inhibition Range EC50. The experiment is classed as cell-based.

Where only a bound is given, the exact number is not on record here.

A word on the EC50: it is the concentration that produces a half-maximal response. On to `C[C@H](NC(=O)Cc1ccccc1)C(=O)Nc1ccc(C2S/C(=N\c3cccc(F)c3)N(Cc3ccccn3)C2=O)cc1` (stereo partly shown) [Compound 96], for which the EC50 is less than 0.1 µM.
Regarding `COc1ccc(C(F)(F)F)cc1/N=C1\SC(c2ccc(NC(=O)[C@H](C)NC(=O)OCc3ccccc3)cc2)C(=O)N1Cc1ccco1` (stereo partly shown) [Compound 50], the EC50 lay within 0.1 to 1 µM.
For `C[C@H](NC(=O)OCc1ccccc1)C(=O)Nc1ccc(C2S/C(=N\c3cccc(F)c3)N(CC3CCCO3)C2=O)cc1` (stereo partly shown) [Compound 26], the EC50 lay within 0.1 to 1 µM.
As for `O=C(Nc1ccc(C2S/C(=N\c3ccc(N4CCOCC4)cc3)N(Cc3ccccn3)C2=O)cc1)[C@@H]1C[C@@H](O)CN1C(=O)OCc1ccccc1` (stereo partly shown) [Compound 78], the EC50 was 0.1 to 1 µM.
For `O=C(Nc1ccc(C2S/C(=N\c3ccc(N4CCOCC4)cc3)N(Cc3ccccn3)C2=O)cc1)[C@@H]1CCCN1C(=O)C1(c2ccccc2)CC1` (stereo partly shown) [Compound 118] the value was less than 0.1 µM.
On to `CC(C)/N=C1\SC(c2ccc(NC(=O)[C@H](C)NC(=O)Cc3ccccc3)cc2)C(=O)N1Cc1ccccn1` (stereo partly shown) [Compound 102], for which the EC50 was less than 0.1 µM.
`CO[C@H](C(=O)N[C@@H](C)C(=O)Nc1ccc(C2S/C(=N\C(C)C)N(Cc3ccccn3)C2=O)cc1)c1ccccc1` (stereo partly shown) [Compound 122]: the EC50 is less than 0.1 µM.
`CC(C)/N=C1\SC(c2ccc(NC(=O)[C@H](C)NC(=O)C(c3ccccc3)c3ccccc3)cc2)C(=O)N1Cc1ccccn1` (stereo partly shown) [Compound 123]: the EC50 was less than 0.1 µM.
`C[C@H](NC(=O)OCc1ccccc1)C(=O)Nc1ccc(C2S/C(=N\c3cccc(F)c3)N(Cc3ccc(OC(F)(F)F)cc3)C2=O)cc1` (stereo partly shown) [Compound 23]: the EC50 was 1 to 5 µM.
Under `O=C(Nc1ccc(C2S/C(=N\c3cc(F)cc(F)c3)N(Cc3ccco3)C2=O)cc1)[C@@H]1CCCN1C(=O)OCc1ccccc1` (stereo partly shown) [Compound 42] stands 0.1 to 1 µM; under `O=C(Nc1ccc(C2S/C(=N\c3ccc(N4CCOCC4)cc3)N(Cc3ccccn3)C2=O)cc1)[C@@H]1CCCN1C(=O)Cc1ccccc1Cl` (stereo partly shown) [Compound 108], less than 0.1 µM.
Under `CCOC(=O)/N=C1\SC(c2ccc(NC(=O)[C@H](C)NC(=O)OCc3ccccc3)cc2)C(=O)N1Cc1cccnc1` (stereo partly shown) [Compound 92] stands less than 0.1 µM; under `O=C(Nc1ccc(C2S/C(=N\c3ccc(N4CCOCC4)cc3)N(Cc3ccccn3)C2=O)cc1)[C@@H]1CCCN1C(=O)C(c1ccccc1)c1ccccc1` (stereo partly shown) [Compound 107], less than 0.1 µM; under `C[C@H](NC(=O)OCc1ccccc1)C(=O)Nc1ccc(C2S/C(=N\c3cccc(F)c3)N(Cc3cccnc3)C2=O)cc1` (stereo partly shown) [Compound 27], less than 0.1 µM.
Turning to `O=C(Nc1ccc(C2S/C(=N\c3ccc(N4CCOCC4)cc3)N(Cc3ccccn3)C2=O)cc1)[C@@H]1CCCN1C(=O)Cc1ccc(C(F)(F)F)cc1` (stereo partly shown) [Compound 109], the EC50 lay within 1 to 5 µM.
On to `COc1ccc(/N=C2\SC(c3ccc(NC(=O)[C@@H]4CCCN4C(=O)OCc4ccccc4)cc3)C(=O)N2Cc2ccco2)cn1` (stereo partly shown) [Compound 44], for which the EC50 was 0.1 to 1 µM.
Take `O=C(Nc1ccc(C2S/C(=N\c3cccc(F)c3)N(Cc3ccco3)C2=O)cc1)[C@@H]1CCC(=O)N1C(=O)OCc1ccccc1` (stereo partly shown) [Compound 8]: the EC50 lay within 0.1 to 1 µM.
As to `O=C(Nc1ccc(C2S/C(=N\c3ccc4c(c3)OCCO4)N(Cc3ccco3)C2=O)cc1)[C@@H]1CCCN1C(=O)OCc1ccccc1` (stereo partly shown) [Compound 63], the EC50 was less than 0.1 µM.
As to `O=C(Nc1ccc(C2S/C(=N\c3cccc(F)c3)N(Cc3ccco3)C2=O)cc1)[C@@H]1CCCN1C(=O)COc1ccccc1` (stereo partly shown) [Compound 130], the EC50 was 0.1 to 1 µM.
For `O=C(Nc1ccc(C2S/C(=N\c3cccc(F)c3)N(Cc3ccccn3)C2=O)cc1)[C@@H]1CCCN1C(=O)Cc1ccccc1` (stereo partly shown) [Compound 97] the value was less than 0.1 µM.
As to `O=C(Nc1ccc(C2S/C(=N\c3cccc(F)c3)N(Cc3ccccc3)C2=O)cc1)[C@@H]1CCCN1C(=O)OCc1ccccc1` (stereo partly shown) [Compound 16], the EC50 was in the range of 0.1 to 1 µM.
On to `Cc1cnc(CN2C(=O)C(c3ccc(NC(=O)[C@H](C)NC(=O)OCc4ccccc4)cc3)S/C2=N\c2cccc(F)c2)cn1` (stereo partly shown) [Compound 6], for which the EC50 is less than 0.1 µM.
Under `Cc1cc(F)ccc1/N=C1\SC(c2ccc(NC(=O)[C@@H]3CCCN3C(=O)OCc3ccccc3)cc2)C(=O)N1Cc1ccco1` (stereo partly shown) [Compound 57] stands 1 to 5 µM; under `CCOC(=O)/N=C1\SC(c2ccc(NC(=O)[C@@H]3CCCN3C(=O)OCc3ccccc3)cc2)C(=O)N1Cc1ccccn1` (stereo partly shown) [Compound 91], less than 0.1 µM.
Under `O=C(Nc1ccc(C2S/C(=N\c3cccnc3)N(Cc3cccc(F)c3)C2=O)cc1)[C@@H]1CCCN1C(=O)Cc1ccccc1` (stereo partly shown) [Compound 100] stands less than 0.1 µM.
As to `COc1ccc(CCN2C(=O)C(c3ccc(NC(=O)[C@H](C)NC(=O)OCc4ccccc4)cc3)S/C2=N\c2cccc(F)c2)cc1OC` (stereo partly shown) [Compound 28], the EC50 lay within 1 to 5 µM.
With `O=C(Nc1ccc(C2S/C(=N\c3cccc(F)c3)N(CC3CCCO3)C2=O)cc1)[C@@H]1CCCN1C(=O)OCc1ccccc1` (stereo partly shown) [Compound 14], the EC50 is less than 0.1 µM.
In the case of `CCc1cccc(/N=C2\SC(c3ccc(NC(=O)[C@H](C)NC(=O)OCc4ccccc4)cc3)C(=O)N2Cc2ccco2)c1` (stereo partly shown) [Compound 37], the EC50 was in the range of 1 to 5 µM.
As to `C[C@H](NC(=O)OCc1ccccc1)C(=O)Nc1ccc(C2S/C(=N\c3cccc(OC(F)(F)F)c3)N(Cc3ccco3)C2=O)cc1` (stereo partly shown) [Compound 56], the EC50 is 0.1 to 1 µM.
Consider `C[C@H](NC(=O)OCc1ccccc1)C(=O)Nc1ccc(C2S/C(=N\c3ccc(N4CCOCC4)cc3)N(Cc3cccnc3)C2=O)cc1` (stereo partly shown) [Compound 80], for which the EC50 fell in the range of 0.1 to 1 µM.
For the molecule `CC(C)(C)/N=C1\SC(c2ccc(NC(=O)[C@@H]3CCCN3C(=O)OCc3ccccc3)cc2)C(=O)N1Cc1ccccn1` (stereo partly shown) [Compound 89], the EC50 was in the range of 0.1 to 1 µM.
As for `CCC(C)c1ccc(/N=C2\SC(c3ccc(NC(=O)[C@H](C)NC(=O)OCc4ccccc4)cc3)C(=O)N2Cc2ccco2)cc1` (stereo partly shown) [Compound 46], the EC50 is 1 to 5 µM.
In the case of `O=C(Nc1ccc(C2S/C(=N\c3ccc(N4CCOCC4)cc3)N(Cc3ccco3)C2=O)cc1)[C@@H]1CCCN1C(=O)OCc1ccccc1` (stereo partly shown) [Compound 7], the EC50 is less than 0.1 µM.
Consider `O=C(Nc1ccc(C2S/C(=N\c3cccc(OC(F)(F)F)c3)N(Cc3ccco3)C2=O)cc1)[C@@H]1CCCN1C(=O)OCc1ccccc1` (stereo partly shown) [Compound 55], for which the EC50 lay within 0.1 to 1 µM.
With `O=C(Nc1ccc(C2S/C(=N\c3cccc(F)c3)N(Cc3cccnc3)C2=O)cc1)[C@@H]1CCCN1C(=O)OCc1ccccc1` (stereo partly shown) [Compound 15], the EC50 is less than 0.1 µM.
Under `C[C@H](NC(=O)OCc1ccccc1)C(=O)Nc1ccc(C2S/C(=N\c3ccc(F)cc3Cl)N(Cc3ccco3)C2=O)cc1` (stereo partly shown) [Compound 60] stands 1 to 5 µM; under `CN=C1SC(c2ccc(NC(=O)[C@H](C)NC(=O)OCc3ccccc3)cc2)C(=O)N1Cc1ccccn1` (stereo partly shown) [Compound 84], 0.1 to 1 µM.
Consider `C[C@H](NC(=O)OCc1ccccc1)C(=O)Nc1ccc(C2S/C(=N\c3cccc4ccncc34)N(Cc3ccco3)C2=O)cc1` (stereo partly shown) [Compound 12], for which the EC50 is less than 0.1 µM.
`O=C(Nc1ccc(C2S/C(=N\c3ccc4c(c3)CCC4)N(Cc3ccco3)C2=O)cc1)[C@@H]1CCCN1C(=O)OCc1ccccc1` (stereo partly shown) [Compound 38]: the EC50 lay in the range of 0.1 to 1 µM.
In the case of `C[C@H](NC(=O)OCc1ccccc1)C(=O)Nc1ccc(C2S/C(=N\c3cc(F)cc(F)c3)N(Cc3ccco3)C2=O)cc1` (stereo partly shown) [Compound 43], the EC50 was in the range of 0.1 to 1 µM.

Source of the values: patent US20050069522A1, “Combination pharmaceutical agents as inhibitors of HCV replication” (priority 2002, published 2005).
